Reference: US20240109917A1 (ACTELION PHARMACEUTICALS LTD, priority 2020, published 2024)
Where two headings read alike, the source gives them in different places.

Assays:
PDGFRβ = PDGFRβ (Rattus norvegicus (Rat), UniProt Q05030); test: PDGFRβ Cellular Assay (PDGFRb P-Y751 HTRF in A10 cells stimulated with PDGF-BB); assay type: cell-based
How it was run: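 Rat A10 cells, plated overnight, were treated with compound for 3 hours, then stimulated with PDGF-BB (working stock 100 ng/mL in 10% FBS medium). After lysis, PDGFRβ P-Y751 was detected by HTRF.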

[1] = molecular target: Tb-labeled inactive PDGFRβ (Homo sapiens (Human), UniProt P09619); test: PDGFRβ LanthaScreen Assay; assay type: binding; details: read-out: PDGFR Lantha IC50
Tb-labeled inactive PDGFRβ, sequence (P09619 33-1106): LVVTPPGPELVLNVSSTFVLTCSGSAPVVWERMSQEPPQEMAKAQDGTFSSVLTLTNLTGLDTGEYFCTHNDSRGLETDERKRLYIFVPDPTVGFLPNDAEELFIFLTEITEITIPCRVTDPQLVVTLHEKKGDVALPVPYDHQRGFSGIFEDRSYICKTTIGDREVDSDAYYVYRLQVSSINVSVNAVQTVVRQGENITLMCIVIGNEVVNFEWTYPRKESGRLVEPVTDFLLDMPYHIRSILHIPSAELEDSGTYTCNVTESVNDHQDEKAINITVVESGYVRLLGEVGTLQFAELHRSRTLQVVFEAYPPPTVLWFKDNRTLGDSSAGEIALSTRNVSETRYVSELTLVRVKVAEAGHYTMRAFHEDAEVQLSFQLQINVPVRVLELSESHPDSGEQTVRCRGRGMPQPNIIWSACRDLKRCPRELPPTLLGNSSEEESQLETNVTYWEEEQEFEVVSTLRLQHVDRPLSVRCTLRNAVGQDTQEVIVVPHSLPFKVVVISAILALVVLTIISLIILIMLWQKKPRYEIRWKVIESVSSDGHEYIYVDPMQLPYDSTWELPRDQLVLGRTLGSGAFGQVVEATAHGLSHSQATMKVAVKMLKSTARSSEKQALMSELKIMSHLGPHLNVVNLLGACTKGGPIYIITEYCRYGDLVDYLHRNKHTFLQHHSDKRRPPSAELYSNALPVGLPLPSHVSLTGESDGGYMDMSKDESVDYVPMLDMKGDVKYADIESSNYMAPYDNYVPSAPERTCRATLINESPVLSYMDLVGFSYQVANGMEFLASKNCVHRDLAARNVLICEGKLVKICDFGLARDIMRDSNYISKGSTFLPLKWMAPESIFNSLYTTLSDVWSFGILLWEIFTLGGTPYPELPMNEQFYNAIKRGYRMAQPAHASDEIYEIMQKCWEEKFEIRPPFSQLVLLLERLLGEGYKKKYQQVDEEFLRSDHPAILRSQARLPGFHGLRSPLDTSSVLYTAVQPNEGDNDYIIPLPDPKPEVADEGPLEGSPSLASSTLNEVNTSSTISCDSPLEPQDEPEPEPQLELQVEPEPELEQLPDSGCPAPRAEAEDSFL

VEGFR2, unphosphorylated = VEGFR2, unphosphorylated (Homo sapiens (Human), UniProt P35968); test: VEGFR ADP GLO Assay; assay type: biochemical
VEGFR2, unphosphorylated, sequence (P35968 20-1356): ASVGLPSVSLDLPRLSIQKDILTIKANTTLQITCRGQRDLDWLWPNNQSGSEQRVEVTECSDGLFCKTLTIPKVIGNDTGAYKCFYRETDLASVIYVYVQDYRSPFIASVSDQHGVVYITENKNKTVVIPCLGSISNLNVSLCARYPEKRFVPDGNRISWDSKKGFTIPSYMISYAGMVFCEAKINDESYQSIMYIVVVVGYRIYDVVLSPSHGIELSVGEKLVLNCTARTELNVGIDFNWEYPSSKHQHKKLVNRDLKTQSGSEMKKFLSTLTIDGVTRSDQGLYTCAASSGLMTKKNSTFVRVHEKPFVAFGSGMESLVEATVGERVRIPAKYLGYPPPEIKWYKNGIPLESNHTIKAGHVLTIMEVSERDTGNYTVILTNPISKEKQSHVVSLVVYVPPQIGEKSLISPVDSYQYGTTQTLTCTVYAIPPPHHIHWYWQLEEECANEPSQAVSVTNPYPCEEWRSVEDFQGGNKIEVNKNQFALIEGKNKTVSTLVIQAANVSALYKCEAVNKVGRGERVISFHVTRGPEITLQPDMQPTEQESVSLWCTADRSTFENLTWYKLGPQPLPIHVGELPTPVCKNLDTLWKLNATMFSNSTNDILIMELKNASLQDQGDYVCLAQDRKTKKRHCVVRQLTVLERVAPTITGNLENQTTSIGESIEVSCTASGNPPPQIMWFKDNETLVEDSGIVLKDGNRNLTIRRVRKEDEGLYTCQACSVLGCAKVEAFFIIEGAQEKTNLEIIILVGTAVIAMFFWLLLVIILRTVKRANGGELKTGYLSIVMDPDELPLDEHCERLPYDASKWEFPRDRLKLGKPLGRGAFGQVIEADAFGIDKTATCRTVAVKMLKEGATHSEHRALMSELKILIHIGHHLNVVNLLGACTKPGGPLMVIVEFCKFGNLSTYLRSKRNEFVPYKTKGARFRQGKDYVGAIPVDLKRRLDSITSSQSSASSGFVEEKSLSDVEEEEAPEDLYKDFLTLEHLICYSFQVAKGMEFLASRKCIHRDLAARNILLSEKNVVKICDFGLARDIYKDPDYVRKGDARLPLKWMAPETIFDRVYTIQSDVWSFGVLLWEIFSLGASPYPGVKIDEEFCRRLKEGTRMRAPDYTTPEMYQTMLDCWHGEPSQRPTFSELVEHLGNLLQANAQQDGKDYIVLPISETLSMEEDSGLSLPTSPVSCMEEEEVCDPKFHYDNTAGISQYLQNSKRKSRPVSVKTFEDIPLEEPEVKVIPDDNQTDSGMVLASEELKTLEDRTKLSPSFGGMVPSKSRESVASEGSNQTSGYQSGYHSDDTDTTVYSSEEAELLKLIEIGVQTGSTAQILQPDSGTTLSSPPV

PDGFRβ, sequence (Q05030 32-1097): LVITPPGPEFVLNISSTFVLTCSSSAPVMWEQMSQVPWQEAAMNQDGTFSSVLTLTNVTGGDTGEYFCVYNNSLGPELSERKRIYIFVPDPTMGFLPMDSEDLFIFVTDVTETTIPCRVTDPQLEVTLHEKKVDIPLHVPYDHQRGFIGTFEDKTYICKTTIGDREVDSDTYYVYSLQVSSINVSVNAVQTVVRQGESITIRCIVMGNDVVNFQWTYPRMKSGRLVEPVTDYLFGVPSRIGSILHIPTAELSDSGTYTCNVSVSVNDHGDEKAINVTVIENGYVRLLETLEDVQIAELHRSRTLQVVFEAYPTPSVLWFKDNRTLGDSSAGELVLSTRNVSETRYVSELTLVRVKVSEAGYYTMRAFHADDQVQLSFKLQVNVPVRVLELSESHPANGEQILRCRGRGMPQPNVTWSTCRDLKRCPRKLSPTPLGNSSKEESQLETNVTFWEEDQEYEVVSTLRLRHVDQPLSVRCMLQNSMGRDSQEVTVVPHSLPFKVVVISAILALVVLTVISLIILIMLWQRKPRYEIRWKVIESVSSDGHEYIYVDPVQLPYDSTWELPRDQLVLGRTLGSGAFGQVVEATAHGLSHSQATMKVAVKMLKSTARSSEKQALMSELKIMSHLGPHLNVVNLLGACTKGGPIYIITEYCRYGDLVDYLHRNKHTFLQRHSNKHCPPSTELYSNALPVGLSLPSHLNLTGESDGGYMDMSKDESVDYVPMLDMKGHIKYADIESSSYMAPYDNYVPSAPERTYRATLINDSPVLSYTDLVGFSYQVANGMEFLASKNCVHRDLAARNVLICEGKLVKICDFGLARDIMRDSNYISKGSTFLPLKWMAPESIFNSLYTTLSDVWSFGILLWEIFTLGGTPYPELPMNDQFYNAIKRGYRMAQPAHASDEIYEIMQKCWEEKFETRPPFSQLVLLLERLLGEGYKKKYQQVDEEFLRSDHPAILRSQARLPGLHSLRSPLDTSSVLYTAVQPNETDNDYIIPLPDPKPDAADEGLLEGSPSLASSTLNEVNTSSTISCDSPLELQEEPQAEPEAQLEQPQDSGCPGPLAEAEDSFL

| Compound | IC50 (PDGFRβ; read-out: PDGFR Cellular IC50) [nM] | IC50 [1] [nM] | IC50 (VEGFR2, unphosphorylated) [nM] | IC50 (PDGFRβ; PDGFR Cellular IC50) [nM] |
| --- | --- | --- | --- | --- |
| Cc1ncc(C(=O)NCCN2CCCC2(C)C)cc1NC(=O)c1cnn2cc(-c3cnn(C)c3C)sc12 [Example 173, 2-(1,5-dimethyl-1H-pyrazol-4-yl)-N-(5-((2-(2,2-dimethylpyrrolidin-1-yl)ethyl)carbamoyl)-2-methylpyridin-3-yl)pyrazolo[5,1-b]thiazole-7-carboxamide] | 11.8 | 3.1 | > 7500 | – |
| COCCn1cc(-c2cn3ncc(C(=O)Nc4cc(C(=O)NCCN5CCC(F)(F)CC5)cnc4C)c3s2)cn1 [Example 165, N-(5-((2-(4,4-difluoropiperidin-1-yl)ethyl)carbamoyl)-2-methylpyridin-3-yl)-2-(1-(2-methoxyethyl)-1H-pyrazol-4-yl)pyrazolo[5,1-b]thiazole-7-carboxamide] | 11.4 | 3.4 | > 7500 | – |
| Cc1ncc(C(=O)NCCN2CCCC2(C)C)cc1NC(=O)c1cnn2cc(-c3cncnc3)sc12 [Example 139, N-(5-((2-(2,2-dimethylpyrrolidin-1-yl)ethyl)carbamoyl)-2-methylpyridin-3-yl)-2-(pyrimidin-5-yl)pyrazolo[5,1-b]thiazole-7-carboxamide] | 164 | 182 | > 7500 | – |
| Cc1ncc(C(=O)NCCN2CC3CCC2CC3)cc1NC(=O)c1cnn2cc(-c3cnn(CC#N)c3)sc12 [Example 151, N-(5-((2-(2-azabicyclo[2.2.2]octan-2-yl)ethyl)carbamoyl)-2-methylpyridin-3-yl)-2-(1-(cyanomethyl)-1H-pyrazol-4-yl)pyrazolo[5,1-b]thiazole-7-carboxamide] | 240 | 2.8 | > 7500 | – |
| COCCN(CCNC(=O)c1cnc(C)c(NC(=O)c2cnn3cc(-c4cnn(C)c4)sc23)c1)C(C)C [Example 127, N-(5-((2-(isopropyl(2-methoxyethyl)amino)ethyl)carbamoyl)-2-methylpyridin-3-yl)-2-(1-methyl-1H-pyrazol-4-yl)pyrazolo[5,1-b]thiazole-7-carboxamide] | – | 6 | > 7500 | 16.2 |
| Cc1ncc(C(=O)NCCN2CC(C)(C)C2)cc1NC(=O)c1cnn2cc(-c3ccncc3)sc12 [Example 155, N-(5-((2-(3,3-dimethylazetidin-1-yl)ethyl)carbamoyl)-2-methylpyridin-3-yl)-2-(pyridin-4-yl)pyrazolo[5,1-b]thiazole-7-carboxamide] | 153 | 39.4 | > 7500 | – |
| Cc1ncc(NC(=O)NCC2CCN(C)CC2)cc1NC(=O)c1cnn2cc(-c3cnn(C)c3)sc12 [Example 107, 2-(1-methyl-1H-pyrazol-4-yl)-N-(2-methyl-5-(3-((1-methylpiperidin-4-yl)methyl)ureido)pyridin-3-yl)pyrazolo[5,1-b]thiazole-7-carboxamide] | > 3000 | 582 | > 7500 | – |
| Cc1ncc(C(=O)NCCN2CCC23CCC3)cc1NC(=O)c1cnn2cc(-c3cnn(C)c3C)sc12 [Example 169, N-(5-((2-(1-azaspiro[3.3]heptan-1-yl)ethyl)carbamoyl)-2-methylpyridin-3-yl)-2-(1,5-dimethyl-1H-pyrazol-4-yl)pyrazolo[5,1-b]thiazole-7-carboxamide] | 15 | 2.8 | > 7500 | – |
| CC(=O)N1CCN(CCNC(=O)c2cnc(C)c(NC(=O)c3cnn4cc(-c5cnn(C)c5)sc34)c2)CC1 [Example 129, N-(5-((2-(4-acetylpiperazin-1-yl)ethyl)carbamoyl)-2-methylpyridin-3-yl)-2-(1-methyl-1H-pyrazol-4-yl)pyrazolo[5,1-b]thiazole-7-carboxamide] | > 3000 | 87.1 | > 7500 | – |
| Cc1ncc(C(=O)NCCN2C3CCCC2CCC3)cc1NC(=O)c1cnn2cc(-c3cnn(C)c3)sc12 [Example 4, N-(5-((2-(9-azabicyclo[3.3.1]nonan-9-yl)ethyl)carbamoyl)-2-methylpyridin-3-yl)-2-(1-methyl-1H-pyrazol-4-yl)pyrazolo[5,1-b]thiazole-7-carboxamide] | 11.7 | 2.3 | > 7500 | – |
| Cc1ncc(C(=O)NCCN2CCOCC23CCC3)cc1NC(=O)c1cnn2cc(-c3cnn(C)c3)sc12 [Example 117, N-(5-((2-(8-oxa-5-azaspiro[3.5]nonan-5-yl)ethyl)carbamoyl)-2-methylpyridin-3-yl)-2-(1-methyl-1H-pyrazol-4-yl)pyrazolo[5,1-b]thiazole-7-carboxamide] | 5.6 | 2.3 | > 7500 | – |
| Cc1ncc(C(=O)NCCN2CCCC2(C)C)cc1NC(=O)c1cnn2cc(-c3cnn(C)c3)sc12 [Example 8, N-(5-((2-(2,2-dimethylpyrrolidin-1-yl)ethyl)carbamoyl)-2-methylpyridin-3-yl)-2-(1-methyl-1H-pyrazol-4-yl)pyrazolo[5,1-b]thiazole-7-carboxamide] | 43.6 | 4.7 | > 10000 | – |
| Cc1ncc(C(=O)NCCN2CCCC23COC3)cc1NC(=O)c1cnn2cc(-c3c(C)nn(C)c3C)sc12 [Example 179, N-(5-((2-(2-oxa-5-azaspiro[3.4]octan-5-yl)ethyl)carbamoyl)-2-methylpyridin-3-yl)-2-(1,3,5-trimethyl-1H-pyrazol-4-yl)pyrazolo[5,1-b]thiazole-7-carboxamide] | 54.5 | 6.9 | > 7500 | – |
| Cc1ncc(C(=O)NCCN2CCC3(CC3)C2)cc1NC(=O)c1cnn2cc(-c3cn(C)cn3)sc12 [Example 162, N-(5-((2-(5-azaspiro[2.4]heptan-5-yl)ethyl)carbamoyl)-2-methylpyridin-3-yl)-2-(1-methyl-1H-imidazol-4-yl)pyrazolo[5,1-b]thiazole-7-carboxamide] | 660 | 7.7 | > 7500 | – |
| Cc1ncc(C(=O)NCCN2CCCC2(C)C)cc1NC(=O)c1cnn2cc(-c3ccncc3)sc12 [Example 7, N-(5-((2-(2,2-dimethylpyrrolidin-1-yl)ethyl)carbamoyl)-2-methyl-pyridin-3-yl)-2-(pyridin-4-yl)pyrazolo[5,1-b]thiazole-7-carboxamide] | 15.8 | 8.3 | > 7500 | – |
| COCCn1cc(-c2cn3ncc(C(=O)Nc4cc(NC(=O)CCN5CCC56CCC6)cnc4C)c3s2)cn1 [Example 95, N-(5-(3-(1-azaspiro[3.3]heptan-1-yl)propanamido)-2-methylpyridin-3-yl)-2-(1-(2-methoxyethyl)-1H-pyrazol-4-yl)pyrazolo[5,1-b]thiazole-7-carboxamide] | 17.9 | 5.1 | > 7500 | – |
| Cc1ncc(C(=O)NCCN2CCCOCC2)cc1NC(=O)c1cnn2cc(-c3cnn(C)c3)sc12 [Example 121, N-(5-((2-(1,4-oxazepan-4-yl)ethyl)carbamoyl)-2-methylpyridin-3-yl)-2-(1-methyl-1H-pyrazol-4-yl)pyrazolo[5,1-b]thiazole-7-carboxamide] | 80.4 | 13.1 | > 7500 | – |
| Cc1ncc(C(=O)NCCN2CCC3(CC3)C2)cc1NC(=O)c1cnn2cc(-c3ccncc3)sc12 [Example 153, N-(5-((2-(5-azaspiro[2.4]heptan-5-yl)ethyl)carbamoyl)-2-methylpyridin-3-yl)-2-(pyridin-4-yl)pyrazolo[5,1-b]thiazole-7-carboxamide] | 106 | 18 | > 7500 | – |
| Cc1ncc(C(=O)NCCN2CCCC2(C)C)cc1NC(=O)c1cnn2cc(-c3ccn(C)n3)sc12 [Example 9, N-(5-((2-(2,2-dimethylpyrrolidin-1-yl)ethyl)carbamoyl)-2-methylpyridin-3-yl)-2-(1-methyl-1H-pyrazol-3-yl)pyrazolo[5,1-b]thiazole-7-carboxamide] | 16.8 | 3.5 | > 7500 | – |
| COCCn1cc(-c2cn3ncc(C(=O)Nc4cc(C(=O)NCCN5CC6CCC5CC6)cnc4C)c3s2)cn1 [Example 142, N-(5-((2-(2-azabicyclo[2.2.2]octan-2-yl)ethyl)carbamoyl)-2-methylpyridin-3-yl)-2-(1-(2-methoxyethyl)-1H-pyrazol-4-yl)pyrazolo[5,1-b]thiazole-7-carboxamide] | 71.7 | 4.2 | > 7500 | – |
| COCCn1nc(C)c(-c2cn3ncc(C(=O)Nc4cc(NC(=O)CCN5CC6CCC(C5)O6)cnc4C)c3s2)c1C [Example 102, N-(5-(3-(8-oxa-3-azabicyclo[3.2.1]octan-3-yl)propanamido)-2-methylpyridin-3-yl)-2-(1-(2-methoxyethyl)-3,5-dimethyl-1H-pyrazol-4-yl)pyrazolo[5,1-b]thiazole-7-carboxamide] | 21.8 | 1 | > 7500 | – |
| Cc1ncc(NC(=O)CCCN2CCC[C@@H]2C)cc1NC(=O)c1cnn2cc(-c3cnn(C)c3)sc12 [Example 106, (S)-2-(1-methyl-1H-pyrazol-4-yl)-N-(2-methyl-5-(4-(2-methylpyrrolidin-1-yl)butanamido)pyridin-3-yl)pyrazolo[5,1-b]thiazole-7-carboxamide] | 461 | 67 | > 7500 | – |
| Cc1ncc(C(=O)NCCN2CC(C)(C)C2)cc1NC(=O)c1cnn2cc(-c3cccnc3)sc12 [Example 158, N-(5-((2-(3,3-dimethylazetidin-1-yl)ethyl)carbamoyl)-2-methylpyridin-3-yl)-2-(pyridin-3-yl)pyrazolo[5,1-b]thiazole-7-carboxamide] | 156 | 32.5 | > 7500 | – |
| Cc1ncc(C(=O)NCCN2CCCC2(C)C)cc1NC(=O)c1cnn2cc(-c3cnn(CCO)c3)sc12 [Example 140, N-(5-((2-(2,2-dimethylpyrrolidin-1-yl)ethyl)carbamoyl)-2-methylpyridin-3-yl)-2-(1-(2-hydroxyethyl)-1H-pyrazol-4-yl)pyrazolo[5,1-b]thiazole-7-carboxamide] | 309 | 4.9 | > 7500 | – |
